tested on: 5-hydroxytryptamineor histamine induced bronchoconstriction; experiment: Inhibition of 5-hydroxytryptamine or histamine induced bronchoconstriction (Konzett-Rossler preparation); type: in vivo; settings: Cavia porcellus, iv, anaesthetised artificially respired guinea-pig
Excerpt: The compounds are examined for their ability to inhibit 5-hydroxytryptamineor histamine induced bronchoconstriction in the anaesthetised artificially respired guinea-pig (Konzett-Rossler preparation).
The ED50 values (μg/kg, i.v.) for inhibition of bronchoconstriction for a variety of the triazolidine-3,5-diones are given in Table 7.

Compound | ED50 [µg/kg]
CCCCC(C)C(C)(O)CCn1c(=O)n(C)c(=O)n1CCCCCCC(=O)OC (stereo not shown) [Compound 32] | 0.74
COC(=O)CCCCCCn1c(=O)n(C)c(=O)n1CCC(C)(O)Cc1ccccc1 (stereo not shown) [Compound 31] | 37
CCCCCCC(C)(O)CCn1c(=O)n(C)c(=O)n1CC=CCCCC(=O)OC (stereo not shown) [Compound 43, 1-(6'-methoxycarbonyl-n-hex-2-enyl)-2-(3"-hydroxy-3"-methyl-n-nonyl)-4-methyl-1,2,4-triazolidine-3,5-dione] | 1.9
CCCCCC(O)CCn1c(=O)n(C)c(=O)n1CCCCCCC(=O)O (stereo not shown) [Compound 24, 1-(6'-Carboxy-n-hexyl)-2-(3"-hydroxy-n-octyl)-4-methyl-1,2,4-triazolidine-3,5-dione] | 4
CCCCCC(O)CCn1c(=O)n(C)c(=O)n1CCCCCCC(=O)OCC (stereo not shown) [Compound 21, 1-(6'-Ethoxycarbonyl-n-hexyl)-2-(3"-hydroxy-n-octyl)-4-methyl-1,2,4-triazolidine-3,5-dione] | 3.4
CCCCCCC(C)(O)CCn1c(=O)n(C)c(=O)n1CCCCCCC(=O)OC (stereo not shown) [Compound 29, 1-(6'-methoxycarbonyl-n-hexyl-)-2-(3"-hydroxy-3"-methyl-n-nonyl)-4-methyl-1,2,4-triazolidine-3,5-dione] | 2.6
COC(=O)CCCCCCn1c(=O)n(C)c(=O)n1CCC(C)(O)C1CCCCC1 (stereo not shown) [Compound 33] | 2.6

Reference: patent publication US4460595A, “Using urazole analogs of prostaglandins for bronchodilation” (Beecham Group Limited, priority 1976, dated 1984)
